For assay [1], the system named is patients with prostate cancer. The conditions noted are these: cited from earlier work.
The subject of another assay is LL2^cisA cells. Put plainly: In vivo stress induction, C57BL/6 mice injected with LL2^cisA cells. Further details: species or system mouse. The conditions noted are these: 0.15 mg/ml in drinking water during stress induction. The text has this:
A total of 2.5×10^4 KPr^p53A cells were intravenously injected to NOD/SCID mice. Beginning 3 weeks after injection, mice were imaged weekly. Luciferin (PerkinElmer) was intraperitoneally injected in mice before imaging according to the manufacturer's instruction. Mice were imaged with IVIS Spectrum In Vivo Imaging System (IVIS, PerkinElmer) to detect luminescent signal coming from growing cancer cells. Mice were put under anesthesia in the induction chamber with isoflurane vaporizer set to 2.5%, at a flow rate of ˜1.5 liters/min. Mice were then transferred in the IVIS imaging stage nose cone inside the IVIS manifold (IVIS manifold nose cones flow set to ˜0.25 LPM). Animals were monitored by video during imaging. Once the images of luciferase/luciferin activity were acquired, the anesthesia was turned off and the animals were returned to their cages. […] Analysis and quantification were performed with IVIS imaging system Living Image Software 4.7.4 (PerkinElmer). […] When signal was detected, mice were sacrificed, and bioluminescent images of the harvested lung were taken. […] If no bioluminescence was detected in lungs after 80 days from last PMN injection, experiments were terminated, and lung tissue were collected. […] Bioluminescence was not detected in any LL2^CisA-injected mice at 3 weeks after injection. Mice were treated with PMN or PMN-MDSC and analyzed as described above. […]

Consider 1 compound from patent publication US20230151434A1, “REAWAKENING OF DORMANT TUMOR CELLS BY MODIFIED LIPIDS DERIVED FROM STRESS ACTIVATED NEUTROPHILS” (The Wistar Institute of Anatomy and Biology, priority 2020, published 2023).

Entries after “also recorded” stand apart in the source; their conditions may differ.

Regarding `COc1cccc2c1c(O)c(C(=O)N(C)c1ccc(C(F)(F)F)cc1)c(=O)n2C` [tasquinimod], in assay [1] (patients with prostate cancer, compared to placebo), the progression-free survival entry is on record as “prolonged progression-free survival compared to placebo”. Further, in assay [1] (randomized phase III trial), the disease-free survival entry is “increased disease-free survival” and the overall survival entry is reported as “did not affect overall survival”. In addition, in the assay with LL2^cisA cells, the “frequency of tumor lesions in stressed LL2^cisA cell-bearing mice” value is “significantly (P=0.007) reduced frequency of tumor lesions; also recorded: reverting the stress-induced reactivation of dormant tumor cells in mice”.
